According to patent publication US20250114356A1, “INDAZOLE BASED COMPOUNDS AND ASSOCIATED METHODS OF USE” (Arvinas Operations, Inc., priority 2020, published 2025):

How the values were obtained:
wildtype LRRK2 = molecular target: T1, wildtype LRRK2 (Homo sapiens, UniProt Q5S007); assay: LRRK2 degradation assay, wildtype LRRK2-HiBit expressed from plasmid in HEK293 cells; type: cell-based; settings: HEK293 cells transfected with HiBit-tagged wildtype LRRK2, 24 hours compound incubation; for Dmax: read-out: **WT Dmax (%); for DC50: read-out: *WT DC50
T1 construct: expressed in transfected cells; host or cells: HEK293 (ATCC CRL-1573), transient transfection, ubiquitin promoter
Description: (§1) The assay measures the degradation of wildtype and G2019S LRRK2 tagged with a HiBit tag on the C-terminus of the protein that was expressed from a mammalian expression vector, driven by the ubiquitin promoter in HEK293 cells. Each compound dose-response was repeated on two separate days, on three separate plates each day.
(§2) Plasmid Preparation. Transfection mixes were assembled as follows and incubated for 30 minutes at room temperature. In a 15 mL tube, 5.25 mL Opti-MEM (no additions) was mixed with 17 μL Firefly Luciferase plasmid at 1 μg/μL and 158 μL WT plasmid DNA at 1 μg/μL (175 μg total DNA) were mixed by flicking. In a new 15 mL tube, 5.25 mL OptiMEM was mixed with 17 μL Firefly Luciferase plasmid at 1 μg/μL and 158 μL G2019S plasmid DNA at 1 μg/μL (175 μg total DNA) were mixed by flicking. X-tremeGene HP was mixed thoroughly using a vortex. Next, 175 μL was added to each tube and flicked to mix. Both tubes were left to incubate for 30 minutes at room temperature.
(§3) While the transfection mixes were incubating, HEK293 cells (acquired from ATCC; ATCC CRL-1573) were harvested with trypsin. Once cells are detached, the cells were resuspended in 12 mL OptiMEM+5% FBS and transferred to a 50 mL tube. The cells were mixed well and counted. Using OptiMEM+5% FBS, the cells were diluted in two 250 mL conical tubes at 0.71×10^6 cells/mL in 70 mL. One tube was labeled “WT” and the other “G2019S”. The WT and G2019S transfection mixes were added dropwise to the corresponding 250 mL tubes. The tubes were mixed first by pipetting then by swirling. The tubes were incubated at room temperature for at least 5 minutes.
(§4) Each tube was swirled before dispensing and after every three plates. Seventy microliters of cells were dispensed with WT or G2019S DNA to seven plates each. Three plates of each were tested with compound plate one (preparation described below) and three plates of each were tested with compound plate two (preparation described below). The first plate from each set served as a “prime” plate and was not used to test compounds. Each plate was incubated in the hood for 10 minutes before placing in the 37° C. incubator for 24 hours.
(§5) Preparation of Compound and Assay Plates. Two compound plates were made using 96 well polypropylene plates. Compounds were made up at 10 mM and were diluted to 1 mM in 30 μL. Each dose response curve included a well of DMSO, as a negative control and for normalization, and a well of 0.5 μM of Exemplary Compound 4 as a positive control. In addition to seven test compounds, each plate also included a dose response of Exemplary Compound 4. The compound plates were spun down along at 1200 rpm for 2 minutes.
(§6) The two compound plates were then mixed and 2 μL was diluted in intermediate plates having 248 μL of Opti-Mem in each well. Next, 10 μL diluted compounds from the intermediate plates were added to each test plate (three WT and three G2019S plates per compound plate for a total of 12 assay plates). The plates were incubated for 24 hours at 37° C.
(§7) All assay plates and all Nano-Glo Dual-Luciferase Reporter Assay System components (except for the DLR substrate) were equilibrated to room temperature. Next, the luciferase buffer was mixed with the lyophilized amber bottle until fully dissolved, and 75 μL of the luciferase mixture was added to each well of each assay plate. The assay plates were incubated for 10 minutes at room temperature with shaking for at least 5 minutes, and then read on a plate reader.
(§8) Developing Plates and Analyzing Data. One milliliter of DLR substrate and 1 mL LgBiT Protein were added to the Stop and Glo buffer, and 75 μL of the mixture was added to each well of each plate. Optically clear seals were added to each plate and each plate was incubated for 20 minutes with shaking for at least 10 minutes, and then read on a plate reader. […]

G2019S LRRK2 = molecular target: T2, G2019S LRRK2 (Homo sapiens, UniProt Q5S007, G2019S); assay: LRRK2 degradation assay, G2019S LRRK2-HiBit expressed from plasmid in HEK293 cells; type: cell-based; settings: HEK293 cells transfected with HiBit-tagged G2019S LRRK2, 24 hours compound incubation
T2 construct: expressed in transfected cells; host or cells: HEK293 (ATCC CRL-1573), transient transfection, ubiquitin promoter
Description: as §1, §2, §3, §4, §5, §6, §7, §8

T2 sequence (Q5S007 whole entry G2019S): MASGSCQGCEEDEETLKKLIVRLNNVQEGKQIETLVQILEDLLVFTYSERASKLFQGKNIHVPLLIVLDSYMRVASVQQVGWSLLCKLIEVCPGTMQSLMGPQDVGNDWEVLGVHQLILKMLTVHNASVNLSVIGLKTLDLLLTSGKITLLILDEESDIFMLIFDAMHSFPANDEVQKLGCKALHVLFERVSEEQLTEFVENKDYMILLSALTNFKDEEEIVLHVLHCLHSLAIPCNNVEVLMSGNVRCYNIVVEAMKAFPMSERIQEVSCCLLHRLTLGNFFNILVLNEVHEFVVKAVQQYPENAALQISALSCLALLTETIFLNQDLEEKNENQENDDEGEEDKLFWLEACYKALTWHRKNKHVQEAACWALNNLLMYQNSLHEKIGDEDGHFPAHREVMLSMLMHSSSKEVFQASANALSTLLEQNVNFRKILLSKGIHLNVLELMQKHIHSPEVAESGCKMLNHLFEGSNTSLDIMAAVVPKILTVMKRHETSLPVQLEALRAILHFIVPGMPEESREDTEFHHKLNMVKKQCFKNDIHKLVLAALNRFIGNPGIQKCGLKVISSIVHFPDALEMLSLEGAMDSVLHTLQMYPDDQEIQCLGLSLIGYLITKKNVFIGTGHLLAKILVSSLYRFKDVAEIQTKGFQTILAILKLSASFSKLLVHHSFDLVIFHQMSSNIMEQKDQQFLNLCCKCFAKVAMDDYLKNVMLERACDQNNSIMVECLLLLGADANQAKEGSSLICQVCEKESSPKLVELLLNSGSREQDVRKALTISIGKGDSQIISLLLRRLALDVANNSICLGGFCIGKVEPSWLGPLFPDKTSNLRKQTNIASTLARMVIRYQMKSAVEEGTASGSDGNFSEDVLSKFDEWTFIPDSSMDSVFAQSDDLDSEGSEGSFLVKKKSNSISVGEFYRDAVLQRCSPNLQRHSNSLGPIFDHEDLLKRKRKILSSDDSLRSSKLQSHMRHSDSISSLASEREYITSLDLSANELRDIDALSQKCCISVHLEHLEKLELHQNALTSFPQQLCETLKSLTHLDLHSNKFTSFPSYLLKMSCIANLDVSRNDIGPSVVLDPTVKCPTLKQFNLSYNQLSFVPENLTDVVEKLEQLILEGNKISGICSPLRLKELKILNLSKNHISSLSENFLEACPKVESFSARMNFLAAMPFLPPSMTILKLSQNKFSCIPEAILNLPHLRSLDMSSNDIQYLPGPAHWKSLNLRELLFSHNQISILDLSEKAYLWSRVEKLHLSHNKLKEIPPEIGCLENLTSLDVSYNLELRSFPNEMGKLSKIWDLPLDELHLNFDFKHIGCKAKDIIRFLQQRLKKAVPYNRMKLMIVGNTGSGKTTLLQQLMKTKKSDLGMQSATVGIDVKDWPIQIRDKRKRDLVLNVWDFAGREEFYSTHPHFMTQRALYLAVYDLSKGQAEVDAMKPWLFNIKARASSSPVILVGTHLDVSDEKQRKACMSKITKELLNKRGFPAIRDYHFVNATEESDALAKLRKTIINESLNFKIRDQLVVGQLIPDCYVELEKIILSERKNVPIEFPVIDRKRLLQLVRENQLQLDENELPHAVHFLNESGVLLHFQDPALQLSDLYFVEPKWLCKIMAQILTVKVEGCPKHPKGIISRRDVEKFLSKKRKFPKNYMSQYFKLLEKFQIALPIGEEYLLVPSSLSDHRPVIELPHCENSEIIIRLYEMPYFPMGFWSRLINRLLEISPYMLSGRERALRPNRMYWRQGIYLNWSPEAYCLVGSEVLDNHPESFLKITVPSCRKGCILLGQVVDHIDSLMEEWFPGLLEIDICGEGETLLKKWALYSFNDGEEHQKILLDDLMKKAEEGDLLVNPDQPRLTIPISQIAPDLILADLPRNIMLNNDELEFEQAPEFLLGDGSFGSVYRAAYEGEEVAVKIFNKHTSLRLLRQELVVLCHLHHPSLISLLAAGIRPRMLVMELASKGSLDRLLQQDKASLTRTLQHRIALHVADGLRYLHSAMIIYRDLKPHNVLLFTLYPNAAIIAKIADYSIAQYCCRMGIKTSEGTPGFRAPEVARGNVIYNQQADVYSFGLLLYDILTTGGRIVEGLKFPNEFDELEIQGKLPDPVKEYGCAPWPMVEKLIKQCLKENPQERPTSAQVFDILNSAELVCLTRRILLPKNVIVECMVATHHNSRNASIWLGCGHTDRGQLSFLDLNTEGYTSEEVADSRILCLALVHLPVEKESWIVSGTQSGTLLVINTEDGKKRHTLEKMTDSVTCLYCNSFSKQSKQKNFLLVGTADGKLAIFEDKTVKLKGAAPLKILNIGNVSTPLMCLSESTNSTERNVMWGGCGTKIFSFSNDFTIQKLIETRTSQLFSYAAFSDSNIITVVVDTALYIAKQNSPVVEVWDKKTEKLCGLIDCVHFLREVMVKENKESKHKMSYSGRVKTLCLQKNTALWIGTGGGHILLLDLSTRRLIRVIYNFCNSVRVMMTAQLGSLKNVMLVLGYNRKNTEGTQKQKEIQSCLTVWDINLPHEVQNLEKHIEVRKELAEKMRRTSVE
T1 sequence (Q5S007 whole entry): as the sequence (Q5S007 whole entry G2019S) above, with S2019G counted along it

Dmax (wildtype LRRK2) | DC50 (wildtype LRRK2) | DC50 (G2019S LRRK2) | Dmax (G2019S LRRK2) | Structure (SMILES)
≥ 70% | < 10 nM | < 10 nM | ≥ 70% | CC1(Oc2ccc3[nH]nc(-c4cc(N5CCN(CCN6CCC(CN7CCN(c8ccc9c(c8)C(=O)N(C8CCC(=O)NC8=O)C9=O)CC7)CC6)CC5)ncn4)c3c2)CC1 (stereo not shown) [compound 28, 2-(2,6-dioxopiperidin-3-yl)-5-[4-({1-[2-(4-{6-[5-(1-methylcyclopropoxy)-1H-indazol-3-yl]pyrimidin-4-yl}piperazin-1-yl)ethyl]piperidin-4-yl}methyl)piperazin-1-yl]-2,3-dihydro-1H-isoindole-1,3-dione]
≥ 70% | < 10 nM | 10 to 50 nM | 50 to 70% | C[C@H]1CN(c2cc(-c3n[nH]c4ccc(OC5(C)CC5)cc34)ncn2)CCN1CCOCCOCCOc1ccc2c(c1)C(=O)N(C1CCC(=O)NC1=O)C2=O (stereo partly drawn) [compound 3, 2-(2,6-dioxopiperidin-3-yl)-5-[2-(2-{2-[(2S)-2-methyl-4-{6-[5-(1-methylcyclopropoxy)-1H-indazol-3-yl]pyrimidin-4-yl}piperazin-1-yl]ethoxy}ethoxy)ethoxy]-2,3-dihydro-1H-isoindole-1,3-dione]
50 to 70% | < 10 nM | < 10 nM | 50 to 70% | C[C@H]1CN(c2cc(-c3n[nH]c4ccc(OC5(C)CC5)cc34)ncn2)CCN1CCOCCN1CCN(c2ccc3c(c2)C(=O)N(C2CCC(=O)NC2=O)C3=O)CC1 (stereo partly drawn) [compound 20, 2-(2,6-dioxopiperidin-3-yl)-5-[4-(2-{2-[(2S)-2-mcthyl-4-{6-[5-(1-methylcyclopropoxy)-1H-indazol-3-yl]pyrimidin-4-yl}piperazin-1-yl]ethoxy}ethyl)piperazin-1-yl]-2,3-dihydro-1H-isoindole-1,3-dione]
≥ 70% | < 10 nM | 10 to 50 nM | ≥ 70% | CC(C)Oc1ccc2[nH]nc(-c3cc(N4CCN(CCN5CCC(CN6CCN(c7ccc8c(c7)CN(C7CCC(=O)NC7=O)C8=O)CC6)CC5)[C@@H](C)C4)ncn3)c2c1 (stereo partly drawn) [compound 31, 3-(5-{4-[(1-{2-[(2S)-2-methyl-4-{6-[5-(propan-2-yloxy)-1H-indazol-3-yl]pyrimidin-4-yl}piperazin-1-yl]ethyl}piperidin-4-yl)methyl]piperazin-1-yl}-1-oxo-2,3-dihydro-1H-isoindol-2-yl)piperidine-2,6-dione]
≥ 70% | 10 to 50 nM | 10 to 50 nM | ≥ 70% | CC(C)Oc1ccc2[nH]nc(-c3cc(N4CCN(CCN(C)CCCN5CCN(c6ccc7c(c6)C(=O)N(C6CCC(=O)NC6=O)C7=O)CC5)[C@@H](C)C4)ncn3)c2c1 (stereo partly drawn) [compound 36, 2-(2,6-dioxopiperidin-3-yl)-5-(4-{3-[methyl({2-[(2S)-2-methyl-4-{6-[5-(propan-2-yloxy)-1H-indazol-3-yl]pyrimidin-4-yl}piperazin-1-yl]ethyl})amino]propyl}piperazin-1-yl)-2,3-dihydro-1H-isoindole-1,3-dione]
≥ 70% | 10 to 50 nM | 50 to 100 nM | ≥ 70% | CC1(Oc2ccc3[nH]nc(-c4cc(N5CCO[C@H](CCOCCOCCOCCOc6ccc7c(c6)C(=O)N(C6CCC(=O)NC6=O)C7=O)C5)ncn4)c3c2)CC1 (stereo in doubt) [compound 17, 2-(2,6-dioxopiperidin-3-yl)-5-(2-(2-(2-(2-(4-(6-(5-(1-methylcyclopropoxy)-1H-indazol-3-yl)pyrimidin-4-yl)morpholin-2-yl)ethoxy)ethoxy)ethoxy)ethoxy)isoindoline-1,3-dione]
50 to 70% | < 10 nM | < 10 nM | 50 to 70% | CC(C)Oc1ccc2[nH]nc(-c3cc(N4CCN(CCCCN5CCN(c6ccc7c(c6)C(=O)N(C6CCC(=O)NC6=O)C7=O)CC5)[C@@H](C)C4)ncn3)c2c1 (stereo partly drawn) [compound 23, 2-(2,6-dioxopiperidin-3-yl)-5-(4-{4-[(2S)-2-methyl-4-{6-[5-(propan-2-yloxy)-1H-indazol-3-yl]pyrimidin-4-yl}piperazin-1-yl]butyl}piperazin-1-yl)-2,3-dihydro-1H-isoindole-1,3-dione]
50 to 70% | 10 to 50 nM | 10 to 50 nM | 50 to 70% | CC(C)Oc1ccc2[nH]nc(-c3cc(N4CCN(CC[C@H]5CCN(CC6CCN(c7ccc8c(c7)C(=O)N(C7CCC(=O)NC7=O)C8=O)CC6)C5)CC4)ncn3)c2c1 (stereo partly drawn) [compound 42, 2-(2,6-dioxopiperidin-3-yl)-5-(4-(((R)-3-(2-(4-(6-(5-isopropoxy-1H-indazol-3-yl)pyrimidin-4-yl)piperazin-1-yl)ethyl)pyrrolidin-1-yl)methyl)piperidin-1-yl)isoindoline-1,3-dione]
≥ 70% | < 10 nM | < 10 nM | ≥ 70% | CC(C)Oc1ccc2[nH]nc(-c3cc(N4CCO[C@H](CCN5CCN(CC6CCN(c7ccc8c(c7)C(=O)N(C7CCC(=O)NC7=O)C8=O)CC6)CC5)C4)ncn3)c2c1 (stereo partly drawn) [compound 50, 2-(2,6-dioxopiperidin-3-yl)-5-(4-((4-(2-((R)-4-(6-(5-isopropoxy-1H-indazol-3-yl)pyrimidin-4-yl)morpholin-2-yl)ethyl)piperazin-1-yl)methyl)piperidin-1-yl)isoindoline-1,3-dione]
< 50% | < 10 nM | < 10 nM | < 50% | C[C@H]1CN(c2cc(-c3[nH]nc4ccc(OC5(C)CC5)cc34)ncn2)CCN1CCOc1ccc2c(c1)C(=O)N(C1CCC(=O)NC1=O)C2=O (stereo partly drawn) [compound 1, 2-(2,6-dioxopiperidin-3-yl)-5-{2-[(2S)-2-methyl-4-{6-[5-(1-methylcyclopropoxy)-1H-indazol-3-yl]pyrimidin-4-yl}piperazin-1-yl]ethoxy}-2,3-dihydro-1H-isoindole-1,3-dione]
50 to 70% | ≥ 100 nM | 50 to 100 nM | 50 to 70% | CC(C)Oc1ccc2[nH]nc(-c3cc(N4CCN(CCN(C)CCN5CCN(c6ccc7c(c6)C(=O)N(C6CCC(=O)NC6=O)C7=O)CC5)[C@@H](C)C4)ncn3)c2c1 (stereo partly drawn) [compound 37, 2-(2,6-dioxopiperidin-3-yl)-5-(4-{2-[methyl({2-[(2S)-2-methyl-4-{6-[5-(propan-2-yloxy)-1H-indazol-3-yl]pyrimidin-4-yl}piperazin-1-yl]ethyl})amino]ethyl}piperazin-1-yl)-2,3-dihydro-1H-isoindole-1,3-dione]
50 to 70% | < 10 nM | < 10 nM | 50 to 70% | C[C@@H]1CN(c2cc(-c3n[nH]c4ccc(OC5(C)CC5)cc34)ncn2)C[C@H](C)N1CCOCCOCCOc1ccc2c(c1)C(=O)N(C1CCC(=O)NC1=O)C2=O (stereo partly drawn) [compound 6, 5-[2-(2-{2-[(2R,6S)-2,6-dimethyl-4-{6-[5-(1-methylcyclopropoxy)-1H-indazol-3-yl]pyrimidin-4-yl}piperazin-1-yl]ethoxy}ethoxy)ethoxy]-2-(2,6-dioxopiperidin-3-yl)-2,3-dihydro-1H-isoindole-1,3-dione]
≥ 70% | 50 to 100 nM | ≥ 100 nM | 50 to 70% | CC(C)Oc1ccc2[nH]nc(-c3cc(N4CCN(CCOCCC#CCN5CCN(c6ccc7c(c6)C(=O)N(C6CCC(=O)NC6=O)C7=O)CC5)[C@@H](C)C4)ncn3)c2c1 (stereo partly drawn) [compound 34, 2-(2,6-dioxopiperidin-3-yl)-5-[4-(5-{2-[(2S)-2-methyl-4-{6-[5-(propan-2-yloxy)-1H-indazol-3-yl]pyrimidin-4-yl}piperazin-1-yl]ethoxy}pent-2-yn-1-yl)piperazin-1-yl]-2,3-dihydro-1H-isoindole-1,3-dione]
